Data: EP0056458B1, “Nitrosourea derivatives, a process for preparing same and therapeutic compositions” (Tanabe Seiyaku Co., Ltd., priority 1981, dated 1982)
Marks after values point to notes of the source that are not given here.

Columns and labels:
[1] = system: Ehrlich ascites carcinoma; assay: Preventive effect against the growth of Ehrlich ascites tumor (method A); assay type: in vivo, mice; details: for Therapeutic index: M. T. D./M. E. D.; for inhibition in vivo at 3.12 mg/kg/day: dose 3.12 mg/kg/day i.p. x 5 days; for inhibition in vivo at 6.25 mg/kg/day: dose 6.25 mg/kg/day i.p. x 5 days; for inhibition in vivo at 12.5 mg/kg/day: dose 12.5 mg/kg/day i.p. x 5 days; for minimal effective dose: minimum effective dose which shows 100% inhibition for the growth of the ascites tumor, dose column in mg/kg/day, read-out: MED; for Toxic: group of five mice; for inhibition in vivo at 0.19 mg/kg/day: dose 0.19 mg/kg/day i.p. x 5 days; for inhibition in vivo at 0.39 mg/kg/day: dose 0.39 mg/kg/day i.p. x 5 days; for inhibition in vivo at 0.78 mg/kg/day: dose 0.78 mg/kg/day i.p. x 5 days; for inhibition in vivo at 0.097 mg/kg/day: dose 0.097 mg/kg/day i.p. x 5 days; for inhibition in vivo at 0.195 mg/kg/day: dose 0.195 mg/kg/day i.p. x 5 days; for inhibition in vivo at 1.56 mg/kg/day: dose 1.56 mg/kg/day i.p. x 5 days
Method: (§1) (A) Preventive effect against the growth of Ehrlich ascites tumor:
(§2) 10^6 tumor cells of Ehrlich ascites carcinoma were inoculated intraperitoneally into a group of five female mice (ICR mice, body weight: 19-23 g). A test compound was dissolved in a physiological saline solution. (In the case where CCNU was employed as the test compound, said compound was suspended in a physiological saline solution containing 0.1% NIKKOL HCO-60 (trademark; a surface active agent manufactured by Nikko Chemicals Co. Ltd.)) and administered intraperitoneally to the mice. The administration of the test compound was begun 24 hours after the inoculation of the tumor cells and performed once a day for 5 days. The volume of ascites in the treated mice were measured after 7 days of the experiment.

[2] = as above; assay type: in vivo, mice; details: mouse, in vivo, ip; Maximum Tolerated Dose: maximum dose with 100% inhibition of Ehrlich ascites tumor growth without death of mice; dose column in mg/kg/day
Method: as §1, §2

leukemic cells of L-1210 = assay: Effect on the life span of mice implanted with leukemic cells of L-1210 (method B); assay type: in vivo; details: for ILS (%): Increase in Life Span; for 60-day survivors: mice survived for 60 days/mice used
Method: (B) Effect on the life span of mice implanted with leukemic cells of L-1210:
10^5 leukemic cells of L-1210were inoculated intraperitoneally into a group of four male mice (BDF1 mice, body weight: 19-23 g). A test compound was dissolved in a physiological saline solution and administered intraperitoneally to the mice. The administration of the test compound was begun 24 hours after the inoculation of the leukemic cells and performed once a day for 5 days. The survival days of the treated mice were observed.

[3] = Mus musculus, Ehrlich, ip, 168 h, read-out: Inhibition ratio (%)
[4] = Mus musculus, Ehrlich, ip, 168 h, dose 50 mg/kg/day i.p. x 5 days, read-out: Inhibition ratio (%)
[5] = Mus musculus, Ehrlich, ip, 168 h
[6] = dose 100 mg/kg/day i.p. x 5 days
[7] = dose 6.25 mg/kg/day i.p. x 5 days
[8] = dose 12.5 mg/kg/day i.p. x 5 days
[9] = dose 25 mg/kg/day i.p. x 5 days
[10] = T (treated mice), dose 6.25 mg/kg/day i.p. x 5 days
[11] = T (treated mice), dose 12.5 mg/kg/day i.p. x 5 days
[12] = Mus musculus, Ehrlich, ip, 168 h, dose 25 mg/kg/day i.p. x 5 days, read-out: Inhibition ratio (%)
[13] = dose 50 mg/kg/day i.p. x 5 days
[14] = dose 3.12 mg/kg/day i.p. x 5 days
[15] = T (treated mice), dose 3.12 mg/kg/day i.p. x 5 days
[16] = dose 1.56 mg/kg/day i.p. x 5 days

| Structure (SMILES) | Therapeutic index [1] | inhibition in vivo at 3.12 mg/kg/day [1, 3] | inhibition in vivo at 6.25 mg/kg/day [1, 3] | inhibition in vivo at 12.5 mg/kg/day [1, 3] | minimal effective dose [1, 5] | MTD at 168 h [2] | inhibition in vivo at 0.39 mg/kg/day [1, 3] | inhibition in vivo at 0.78 mg/kg/day [1, 3] | ILS (%) (leukemic cells of L-1210; [7]) | ILS (%) (leukemic cells of L-1210; [8]) | Mean survival days (T/C) (leukemic cells of L-1210; [10]) | Mean survival days (T/C) (leukemic cells of L-1210; [11]) | 60-day survivors (leukemic cells of L-1210; [7]) | 60-day survivors (leukemic cells of L-1210; [8]) | inhibition in vivo at 0.097 mg/kg/day [1, 3] | inhibition in vivo at 0.195 mg/kg/day [1, 3] | inhibition in vivo at 1.56 mg/kg/day [1, 3] | inhibition in vivo at 25 mg/kg/day [1, 12] | Toxic [1, 13] | also measured |
| --- | --- | --- | --- | --- | --- | --- | --- | --- | --- | --- | --- | --- | --- | --- | --- | --- | --- | --- | --- | --- |
| O=NN(CCCl)C(=O)NC1CCCCC1 [CCNU, 1-(2-chloroethyl)-1-nitroso-3-cyclohexylurea, reference compound] | 4 | 21.1% | 33.3% | 100% | 12.5 mg/kg/day | – | – | – | – | – | – | – | – | – | – | – | – | – | – | inhibition in vivo at 50 mg/kg/day [1, 4]: 100%; Toxic [1, 6]: Toxic (5/5)* |
| CCCCN(C(=O)N(CCCl)N=O)[C@@H]1[C@@H](O)[C@@H](OC)O[C@H](CO)[C@H]1O [Compound 1, 1 - (2 - chloroethyl) - 1 - nitroso - 3 - n - butyl - 3 - (methyl 3 - deoxy - a - D - glucopyranosid - 3 - yl)urea] | 64 | 100% | – | 100% | 0.78 mg/kg/day | 50 mg/kg/day | 59.5% | 100% | 111.3% | >745.1% | 15.0/7.1 days | >60.0/7.1 days | 0/4 | 4/4 | – | – | – | – | – | inhibition in vivo at 0.19 mg/kg/day [1, 3]: 14.3%; inhibition in vivo at 50 mg/kg/day [1, 4]: 100%; Toxic [1, 6]: Toxic (4/5)*; ILS (%) (leukemic cells of L-1210; [9]): >745.1%; Mean survival days (T/C) (leukemic cells of L-1210; T (treated mice; figure after the slash is untreated control C), dose 25 mg/kg/day i.p. x 5 days): >60.0/7.1 days; 60-day survivors (leukemic cells of L-1210; [9]): 4/4 |
| CO[C@H]1O[C@H](CO)[C@@H](O)[C@H](N(CC(C)C)C(=O)N(CCCl)N=O)[C@H]1O [Compound 2, 1 - (2 - chloroethyl) - 1 - nitroso - 3 - isobutyl - 3 - (methyl 3 - deoxy - a - D - glucopyranosid - 3 - yl)urea] | 128 | – | 100% | – | 0.195 mg/kg/day | 25 mg/kg/day | 100% | – | >597.7% | >597.7% | >60.0/8.6 days | >60.0/8.6 days | 4/4 | 4/4 | 8.1% | 100% | 100% | 100% | Toxic (1/5)* | ILS (%) (leukemic cells of L-1210; [14]): 57.0%; Mean survival days (T/C) (leukemic cells of L-1210; [15]): 13.5/8.6 days; 60-day survivors (leukemic cells of L-1210; [14]): 0/4 |
| CO[C@H]1O[C@H](CO)[C@@H](O)[C@H](N(C)C(=O)N(CCCl)N=O)[C@H]1O [Compound 3, 1 - (2 - chloroethyl) - 1 - nitroso - 3 - methyl - 3 - (methyl 3 - deoxy - a - D - glucopyranosid - 3 - yl)urea] | 64 | – | 100% | – | 0.39 mg/kg/day | 25 mg/kg/day | 100% | – | >614.3% | >614.3% | >60.0/8.4 days | >60.0/8.4 days | 4/4 | 4/4 | 2.7% | 81.1% | 100% | 100% | Toxic (1/5)* | ILS (%) (leukemic cells of L-1210; [16]): 70.2%; ILS (%) (leukemic cells of L-1210; [14]): >361.9%; Mean survival days (T/C) (leukemic cells of L-1210; T (treated mice), dose 1.56 mg/kg/day i.p. x 5 days): 14.3/8.4 days; Mean survival days (T/C) (leukemic cells of L-1210; [15]): >38.8/8.4 days; increase in the average life span (leukemic cells of L-1210; daily dose of 0.26 mg/kg intraperitoneally for five consecutive days): about 30%; 60-day survivors (leukemic cells of L-1210; [16]): 0/4; 60-day survivors (leukemic cells of L-1210; [14]): 2/4 |
| C#CCN(C(=O)N(CCCl)N=O)[C@@H]1[C@@H](O)[C@@H](OC)O[C@H](CO)[C@H]1O [Compound 5, 1 - (2 - chloroethyl) - 1 - nitroso - 3 - propargyl - 3 - (methyl 3 - deoxy - a - D - glucopyranosid - 3 - yl)urea] | 32 | – | 100% | – | 0.78 mg/kg/day | 25 mg/kg/day | 35.1% | 100% | – | – | – | – | – | – | – | – | 100% | 100% | Toxic (1/5)* | – |
| COCCN(C(=O)N(CCCl)N=O)[C@@H]1[C@@H](O)[C@@H](OC)O[C@H](CO)[C@H]1O [Compound 6, 1 - (2 - chloroethyl) - 1 - nitroso - 3 - (2 - methoxyethyl) - 3 - (methyl 3 - deoxy - a - D - glucopyranosid - 3 - yl)urea] | 128 | – | 100% | – | 0.195 mg/kg/day | 25 mg/kg/day | 100% | – | – | – | – | – | – | – | 0% | 100% | 100% | 100% | Toxic (2/5)* | – |
| O=NN(CCCl)C(=O)N[C@@H]1O[C@H](CO)[C@@H](O)[C@H](O)[C@H]1O [GANU, 1-(2-chloroethyl)-1-nitroso-3-β-(D-glucopyranosyl)urea, reference compound] | 32 | 100% | – | 100% | 0.39 mg/kg/day | 12.5 mg/kg/day | 100% | 100% | – | – | – | – | – | – | – | – | – | – | – | inhibition in vivo at 0.09 mg/kg/day ([1]; Mus musculus, Ehrlich, ip, 168 h, dose 0.09 mg/kg/day i.p. x 5 days, read-out: Inhibition ratio (%)): 4.2%; inhibition in vivo at 0.19 mg/kg/day [1, 3]: 79.2%; Toxic [1, 9]: Toxic (5/5)* |
